# Patent US10517889B2, “Modulators of SMAD7 expression” (Ionis Pharmaceuticals, Inc., priority 2017, dated 2019)
# Strand notation (5' to 3'): a small letter for the sugar, then the base; units joined by * are phosphorothioate-linked, units joined directly phosphodiester-linked; [ ] holds rarer units or linkages, { } end groups; capitals alone tell only the bases. e = 2'-O-(2-methoxyethyl) (MOE); [5mC] = 5-methylcytosine; d = 2'-deoxy (DNA)
# Tested on: human SMAD7 mRNA
# Assay: Antisense inhibition of human SMAD7 mRNA expression in Hep3B cells by 5-10-5 MOE gapmers, single concentration, electroporation, RT-PCR (Example 1, Study 1 and 2)
# Type: cell-based
# Procedure, shortened: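 Hep3B cells (20,000/well) electroporated with 5-10-5 MOE gapmer at 5,000 nM or 15,000 nM for approximately 24 h. SMAD7 mRNA quantified by real-time PCR with primer probe set RTS5062 and normalized to RIBOGREEN total RNA. Values are percent inhibition relative to untreated controls.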
# [1] = Study 2, electroporation with 15,000 nM antisense oligonucleotide, 5-10-5 MOE gapmers targeting SEQ ID NO: 1 and 2
# [2] = electroporation with 15,000 nM antisense oligonucleotide (Study 2), 5-10-5 MOE gapmers targeting SEQ ID NO: 1 and 2
# [3] = electroporation, 15,000 nM antisense oligonucleotide (Study 2), 5-10-5 MOE gapmers targeting SEQ ID NO: 1 and 2
# [4] = electroporation, 5,000 nM, approximately 24 hours, relative to untreated control cells, gapmers targeting SEQ ID NO: 1 and 2
# [5] = electroporation, 15,000 nM, approximately 24 hours, relative to untreated control cells, gapmers targeting SEQ ID NO: 1 and 2
substance,measurement,setting,value
771598 (antisense eG*eA*eA*eG*eG*dG*dA*dA*dT*dA*dA*dG*dA*d[5mC]*dA*eA*eG*eG*eA*eT) [compound 771598],% inhibition of SMAD7 mRNA expression,[1],34%
771660 (antisense eT*eT*e[5mC]*eT*e[5mC]*dT*dT*dG*dT*dT*d[5mC]*dA*dT*dT*dT*eA*eA*eA*e[5mC]*e[5mC]) [compound 771660],% inhibition of SMAD7 mRNA expression,[1],0%
771560 (antisense e[5mC]*eT*eG*eA*e[5mC]*dA*dA*dG*dT*dG*dA*dA*dA*dT*dG*eA*eT*eG*eA*e[5mC]) [compound 771560],% Inhibition of SMAD7 mRNA,[2],0%
same,% inhibition of SMAD7 mRNA expression,[3],0%
771379 (antisense eG*eA*eT*e[5mC]*e[5mC]*dA*dT*d[5mC]*dT*dT*dT*dA*dA*dG*d[5mC]*eA*e[5mC]*eG*e[5mC]*eT) [compound 771379],% Inhibition of SMAD7 mRNA,[2],21%
same,% inhibition of SMAD7 mRNA expression,[3],0%
771924 (antisense eT*e[5mC]*eG*e[5mC]*eT*dG*dA*dT*dA*dG*dT*dT*dA*dA*d[5mC]*e[5mC]*eT*e[5mC]*eT*eG) [compound 771924],% Inhibition,[1],9%
771518 (antisense eA*eA*eG*e[5mC]*eA*d[5mC]*dT*d[5mC]*dA*dG*dG*dA*dG*dG*dA*eA*eA*eA*eT*eA) [compound 771518],% inhibition of SMAD7 mRNA expression,[1],4%
771843 (antisense e[5mC]*eG*e[5mC]*e[5mC]*eG*dG*d[5mC]*d[5mC]*d[5mC]*dA*d[5mC]*d[5mC]*dA*dA*d[5mC]*e[5mC]*eT*e[5mC]*eT*eG) [compound 771843],% Inhibition,[1],17%
same,% inhibition of SMAD7 mRNA expression,[4],19%
771452 (antisense eG*eG*eT*eA*eT*d[5mC]*dT*dG*dG*dA*dG*dT*dA*dA*dG*eG*eA*eG*eG*eG) [compound 771452],% Inhibition,[1],55%
same,% inhibition of SMAD7 mRNA expression,[4],25%
771679 (antisense eG*e[5mC]*eA*eT*e[5mC]*dT*dT*dT*dT*d[5mC]*dT*dT*dT*dA*dT*eT*eT*eT*eT*e[5mC]) [compound 771679],% inhibition of SMAD7 mRNA expression,[1],0%
771382 (antisense eA*eA*eA*eT*eA*dA*dA*dA*dA*d[5mC]*dA*d[5mC]*d[5mC]*dA*dA*eG*eA*eT*e[5mC]*e[5mC]) [compound 771382],% Inhibition,[1],0%
same,% inhibition of SMAD7 mRNA expression,[4],55%
771728 (antisense eA*eA*e[5mC]*eT*eT*dT*dT*d[5mC]*dT*d[5mC]*d[5mC]*d[5mC]*d[5mC]*d[5mC]*dT*eT*eG*eG*eA*eA) [compound 771728],% Inhibition of SMAD7 mRNA,[2],7%
same,% inhibition of SMAD7 mRNA expression,[3],1%
771463 (antisense eG*eG*e[5mC]*eT*e[5mC]*d[5mC]*dT*dG*dG*dA*d[5mC]*dA*d[5mC]*dA*dG*eT*eA*eG*eA*eG) [compound 771463],% Inhibition,[1],10%
771866 (antisense eG*e[5mC]*eA*eT*eT*dT*dT*dT*d[5mC]*dT*dG*dA*dA*d[5mC]*dA*eG*eA*eG*eT*e[5mC]) [compound 771866],% inhibition of SMAD7 mRNA expression,[3],34%
771521 (antisense e[5mC]*eA*eT*eG*eA*dA*dA*dA*dG*d[5mC]*dA*dA*dG*d[5mC]*dA*e[5mC]*eT*e[5mC]*eA*eG) [compound 771521],% inhibition of SMAD7 mRNA expression,[3],33%
771695 (antisense eT*e[5mC]*eT*e[5mC]*e[5mC]*d[5mC]*dA*dG*dG*dA*dG*dG*dG*dT*dA*eT*eG*e[5mC]*eA*e[5mC]) [compound 771695],% Inhibition,[1],22%
771768 (antisense eG*eT*eA*eT*eG*d[5mC]*dT*dT*dG*dG*dG*dA*dT*d[5mC]*dT*eG*eT*e[5mC]*eT*eT) [compound 771768],% Inhibition of SMAD7 mRNA,[2],24%
same,% inhibition of SMAD7 mRNA expression,[3],11%
771488 (antisense e[5mC]*eT*eG*eA*eT*d[5mC]*dT*dG*d[5mC]*dA*d[5mC]*dG*dG*dT*dA*eA*eA*eG*e[5mC]*e[5mC]) [compound 771488],% inhibition of SMAD7 mRNA expression,[1],53%
771744 (antisense eG*eG*e[5mC]*eT*eA*dT*dT*d[5mC]*d[5mC]*d[5mC]*dA*dA*dG*dA*dG*eT*e[5mC]*e[5mC]*eA*eG) [compound 771744],% Inhibition of SMAD7 mRNA,[2],40%
same,% inhibition of SMAD7 mRNA expression,[3],23%
771614 (antisense eG*eT*eT*eT*eT*d[5mC]*dT*dA*dA*dG*dT*d[5mC]*d[5mC]*dG*dG*eG*eA*eA*eA*eA) [compound 771614],% inhibition of SMAD7 mRNA expression,[1],25%
771751 (antisense eT*eG*eG*e[5mC]*e[5mC]*dA*dT*dG*d[5mC]*dT*dG*dG*d[5mC]*dA*dA*eA*eT*eA*eG*eG) [compound 771751],% Inhibition,[1],25%
771385 (antisense e[5mC]*eA*eG*eT*e[5mC]*dT*dG*d[5mC]*dT*dG*dT*dG*dG*dA*dT*eT*eT*eG*eA*eA) [compound 771385],% Inhibition,[1],25%
771681 (antisense eT*eT*eT*eG*e[5mC]*dA*dT*dT*dT*dA*dT*dA*dT*dT*dA*eA*eA*eG*e[5mC]*eA) [compound 771681],% inhibition of SMAD7 mRNA expression,[2],0%
771467 (antisense e[5mC]*eA*eT*eA*eG*dA*dA*dG*dA*dT*dA*dT*d[5mC]*d[5mC]*dA*eG*eA*eG*eA*eG) [compound 771467],% inhibition of SMAD7 mRNA expression,[3],11%
771352 (antisense eT*e[5mC]*e[5mC]*eA*eA*d[5mC]*dT*d[5mC]*dT*d[5mC]*dT*dT*dT*dG*d[5mC]*e[5mC]*e[5mC]*e[5mC]*eA*eA) [compound 771352],% inhibition of SMAD7 mRNA expression,[5],54%
771785 (antisense eA*e[5mC]*eT*eT*eT*dG*dA*dA*dG*d[5mC]*d[5mC]*dT*dT*dT*dG*eG*eA*eA*eT*eT) [compound 771785],% inhibition of SMAD7 mRNA expression,[3],12%
771672 (antisense eT*eT*eT*eT*eT*dT*d[5mC]*dA*dG*dG*dA*dG*dT*d[5mC]*d[5mC]*eT*eT*eT*e[5mC]*eT) [compound 771672],% Inhibition of SMAD7 mRNA,[2],30%
same,% inhibition of SMAD7 mRNA expression,[2],2%
771814 (antisense eT*e[5mC]*e[5mC]*e[5mC]*eT*dT*dT*dG*d[5mC]*dT*dG*dG*d[5mC]*d[5mC]*d[5mC]*eA*eG*eT*eT*e[5mC]) [compound 771814],% Inhibition,[1],39%
771702 (antisense eA*eG*eG*eG*eT*dA*dT*dG*d[5mC]*dA*d[5mC]*dA*d[5mC]*dT*d[5mC]*eT*e[5mC]*e[5mC]*e[5mC]*eA) [compound 771702],% Inhibition,[1],24%
771790 (antisense e[5mC]*eA*eA*eA*eA*d[5mC]*dT*d[5mC]*dT*d[5mC]*dT*dG*d[5mC]*d[5mC]*d[5mC]*eT*eG*eG*eA*e[5mC]) [compound 771790],% Inhibition,[1],36%
771934 (antisense e[5mC]*eT*eG*eG*eA*dA*dA*dG*dG*dA*dA*dG*dA*d[5mC]*dT*e[5mC]*eG*eA*eG*eG) [compound 771934],% Inhibition,[1],15%
771784 (antisense eT*eA*eA*eA*eT*d[5mC]*dA*dA*dG*dA*dG*d[5mC]*dT*dG*dA*eA*eA*eT*eT*e[5mC]) [compound 771784],% Inhibition of SMAD7 mRNA,[2],1%
same,% inhibition of SMAD7 mRNA expression,[3],0%
771741 (antisense eG*eG*eT*e[5mC]*eT*d[5mC]*dA*d[5mC]*d[5mC]*dT*dT*dA*dG*dG*d[5mC]*e[5mC]*eT*eG*eT*eG) [compound 771741],% inhibition of SMAD7 mRNA expression,[5],53%
771535 (antisense eA*eA*e[5mC]*eA*eA*dA*dA*d[5mC]*dA*dG*dA*dA*d[5mC]*dA*d[5mC]*eA*eA*eA*e[5mC]*eG) [compound 771535],% inhibition of SMAD7 mRNA expression,[1],17%
771652 (antisense eA*eT*eT*eG*eA*dG*d[5mC]*dT*dA*dA*dG*dA*dA*d[5mC]*dA*eG*eT*eG*eT*e[5mC]) [compound 771652],% inhibition of SMAD7 mRNA expression,[1],0%
771559 (antisense eA*eA*eG*eT*eG*dA*dA*dA*dT*dG*dA*dT*dG*dA*d[5mC]*e[5mC]*eG*e[5mC]*e[5mC]*e[5mC]) [compound 771559],% inhibition of SMAD7 mRNA expression,[1],49%
771369 (antisense e[5mC]*eA*eA*eA*eA*dG*dG*d[5mC]*dT*dG*dA*d[5mC]*dT*d[5mC]*dG*e[5mC]*eG*eG*e[5mC]*e[5mC]) [compound 771369],% Inhibition,[1],22%
771764 (antisense eA*e[5mC]*eA*e[5mC]*eT*dT*d[5mC]*dA*d[5mC]*dA*d[5mC]*dA*d[5mC]*d[5mC]*dA*eA*eA*eG*e[5mC]*eA) [compound 771764],% Inhibition,[1],20%
771453 (antisense eA*eT*e[5mC]*eT*eG*dG*dA*d[5mC]*dA*dG*dT*d[5mC]*dT*dG*d[5mC]*eA*eG*eT*eT*eG) [compound 771453],% inhibition of SMAD7 mRNA expression,[1],38%
771366 (antisense eT*eG*e[5mC]*eT*eG*dA*dT*dT*dA*dT*dT*dA*dA*dT*dG*eG*eT*e[5mC]*eT*eG) [compound 771366],% Inhibition,[1],0%
same,% inhibition of SMAD7 mRNA expression,[4],49%
771829 (antisense eT*eG*eT*eG*e[5mC]*d[5mC]*dT*d[5mC]*dA*dG*d[5mC]*dA*dG*dT*dT*eA*eA*eT*eA*eA) [compound 771829],% inhibition of SMAD7 mRNA expression,[5],14%
